Results: patent US20050137130A1, “Medical treatment” (priority 2001, published 2005)

How the values were obtained:
[1] = system: Notch signalling in CHO-N2 (N27#11) cells expressing full length human Notch2; experiment: Antagonist assay of Notch signalling from Delta-coated Dynabeads (N27#11 luciferase reporter); format: cell-based; details: soluble protein, N27#11 reporter cells; for inhibition of Notch signalling from Delta beads compared to control: IgG4Fc as control
Experimental: Fc tagged Notch signalling modulators were immobilised on Streptavidin-Dynabeads (CELLection Biotin Binder Dynabeads [Cat. No. 115.21] at 4.0×10^8 beads/ml from Dynal (UK) Ltd; “beads”) in combination with biotinylated α-IgG-4 (clone JDC14 at 0.5 mg/ml from Pharmingen [Cat. No. 555879]) as follows:
A volume of Dynabeads beads corresponding to the total number required was removed from a stock of beads at 4.0×10^8 beads/ml. This was washed twice with 1 ml of PBS, and resuspended in a final volume of 100 μl of PBS containing a biotinylated anti-IgG4 antibody (clone JDC14 at 0.5 mg/ml from Pharmingen [Cat. No. 555879]) in a sterile Eppendorf tube and placed on shaker at room temperature for 30 minutes. The amount of biotinylated anti-IgG4 antibody needed to coat the beads was calculated relative to the fact that 1×10^7 streptavidin Dynabeads bind a maximum of 2 μg of antibody.
After coating the beads with antibody they were washed 3 times with 1 ml of PBS and finally resuspended in mDelta1-IgG4Fc protein diluted in PBS. Beads were coated in a solution of […] protein (usually 5 μg of mDelta1-IgG4Fc protein was added per 10^7 beads to be coated) and the ligand was allowed to bind to the beads in a 1 ml volume for 2 h at room temperature (or 4° C. overnight) on a rotary shaker to keep the beads in suspension. […]
To set up the bead antagonist assay, N27#11 cells (T80 flask) were removed using 0.02% EDTA solution (Sigma), spun down and resuspended in 10 ml DMEM plus 10%(HI) FCS plus glutamine plus P/S. Ten μl of cells were counted and the cell density was adjusted to 2.0×10^5 cells/ml with fresh DMEM plus 10%(HI) FCS plus glutamine plus P/S. The reporter cells were plated out at 100 μl per well of a 96-well plate (i.e. 2×10^4 cells per well) and were placed in an incubator to settle down for at least 30 minutes. […]
The following day 150 μl of supernatant was then removed from all the wells, 100 μl of SteadyGlo™ luciferase assay reagent (Promega) was added and the resulting mixture left at room temperature for 5 minutes. […] Luminescence was then read in a TopCount™ (Packard) counter. […]

[2] = system: activated human CD4+ T cells; experiment: Cytokine production (ELISA) by human CD4+ T cells stimulated with anti-CD3/CD28 beads and Delta1 beads, with added soluble protein; format: cell-based; details: increasing amounts of soluble protein in culture medium, 3 days
Experimental: M450 Streptavidin Dynabead™ magnetic beads (Dynal, USA) were coated with an anti-human-IgG4 biotinylated monoclonal antibody (BD Bioscience, 555879) by rotating them in the presence of the antibody for 30 minutes at room temperature. Beads were washed three times with PBS (1 ml). They were further incubated with hDelta1-hIgG4 (see Example 1 above) for 2 hours at room temperature and then washed three times with PBS (1 ml).
Human peripheral blood mononuclear cells (PBMC) were purified from blood using Ficoll-Paque separation medium (Pharmacia). Briefly, 28 ml of blood were overlaid on 21 ml of Ficoll-Paque separation medium and centrifuged at 18-20° C. for 40 minutes at 400 g. PBMC were recovered from the interface and washed 3 times before use for CD4+ T cell purification.
The CD4+ T cells were incubated in triplicates in a 96-well-plate (flat bottom) at 10^5 CD4/well/200 μl in RPMI medium containing 10% FCS, glutamine, penicillin, streptomycin and β2-mercaptoethanol.
Cytokine production was induced by stimulating the cells with anti-CD3/CD28 T cell expander beads from Dynal at a 1:1 ratio (bead/cell) in the presence of beads coated with hDelta1-IgG4Fc fusion protein (Example 1 above) at a 5:1 ratio (beads/cell). In some wells, increasing amounts of soluble hdelta1-IgG4Fc fusion protein were also added.
(§1) The supernatants were removed after 3 days of incubation at 37° C./5% CO2/humidified atmosphere and cytokine production was evaluated by ELISA using Pharmingen kits OptEIA Set human IL10 (catalog No. 555157), OptEIA Set human IL-5 (catalog No. 555202) for IL-10 and IL-5 respectively according to the manufacturer's instructions.
Human peripheral blood mononuclear cells (PBMC) were purified from blood using Ficoll-Paque separation medium (Pharmacia). […]
as §1, with “(Catalog” for “(catalog”, “instructions. […]” for “instructions.”

Substance | inhibition of Notch signalling from Delta beads compared to control [1] | effect of added soluble protein on the IL-10 enhancement by bead-immobilised Delta1 [2] | inhibition of Notch signalling from Delta beads, compared with hDelta1-IgG4Fc ([1]; Delta-coated Dynabeads)
hDelta1-IgG4Fc: fusion protein comprising the extracellular domain of human Delta1 fused to the Fc domain of human IgG4 (SEQ ID NO: 5) | significant inhibition compared to control | inhibited | 
hJagged1EGF1&2-IgG4Fc: human jagged1 sequence up to the end of EGF2 (leader, amino terminal, DSL, EGF1+2) fused to the Fc domain of human IgG4 (SEQ ID NO: 10) | significant inhibition compared to control | inhibited | substantially the same inhibition of Notch signalling
